We go through 36 molecules from patent US9012651B2, “TRPV3 modulators” (AbbVie Inc., priority 2011, dated 2015).

human TRPV3 receptors, sequence (Q8NET8 whole entry): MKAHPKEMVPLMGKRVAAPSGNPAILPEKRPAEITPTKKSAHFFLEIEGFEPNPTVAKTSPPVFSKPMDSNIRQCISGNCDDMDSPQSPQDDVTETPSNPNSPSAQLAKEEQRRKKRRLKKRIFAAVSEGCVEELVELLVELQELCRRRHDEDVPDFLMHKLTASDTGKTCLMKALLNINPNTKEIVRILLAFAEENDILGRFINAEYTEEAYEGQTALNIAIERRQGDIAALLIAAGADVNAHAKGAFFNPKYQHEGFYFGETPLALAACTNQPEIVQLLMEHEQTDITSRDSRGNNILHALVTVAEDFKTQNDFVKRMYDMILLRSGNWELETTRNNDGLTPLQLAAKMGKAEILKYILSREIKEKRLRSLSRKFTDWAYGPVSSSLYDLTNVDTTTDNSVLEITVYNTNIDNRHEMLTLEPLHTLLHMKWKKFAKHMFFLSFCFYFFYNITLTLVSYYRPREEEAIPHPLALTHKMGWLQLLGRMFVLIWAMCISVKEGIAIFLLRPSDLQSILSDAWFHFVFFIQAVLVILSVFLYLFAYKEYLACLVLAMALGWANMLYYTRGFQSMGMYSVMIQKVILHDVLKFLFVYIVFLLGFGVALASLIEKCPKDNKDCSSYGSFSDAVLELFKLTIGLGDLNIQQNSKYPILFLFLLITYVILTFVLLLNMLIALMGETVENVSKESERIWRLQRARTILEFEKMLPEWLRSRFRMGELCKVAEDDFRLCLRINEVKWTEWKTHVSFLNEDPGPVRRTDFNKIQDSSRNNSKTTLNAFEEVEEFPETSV

The experiment addresses human TRPV3 receptors (Homo sapiens (Human), UniProt Q8NET8). Description: Calcium flux assay (FLIPR TETRA), inhibition of the 2-APB response. The class given is cell-based. The conditions noted are these: recombinant HEK293 cells stably expressing TRPV3, Calcium-4 dye, 2-APB at its EC80. The protocol: (i) In Vitro Methods-Calcium Flux Assays:
Experiments were conducted using the FLIPR^TETRA®. On the day prior to the experiment, recombinant HEK293 cells that stably express human and mouse TRPV3 were removed from tissue culture flasks and plated in growth medium at 20,000 cells/well into black-walled clear-bottom 384-well Biocoat™ poly-D-lysine assay plates (BD Biosciences, Bedford, Mass.) using a Multidrop® dispenser (ThermoScientific, Waltham, Mass.). […] Cells were incubated for 90-120 minutes in the dark. Compounds were dissolved in DMSO to prepare a 10 mM stock solution. The intensity of the fluorescence was captured and digitally transferred to an interfaced PC. The peak increase in fluorescence over baseline (relative fluorescence units) was calculated and expressed as the percentage of the maximal 2-APB (2-aminoethoxyldiphenyl borate) response (in the absence of compound).
(In general: Calcium assays in cells follow changes in intracellular calcium, usually with a dye or a luminescent sensor.)
The term IC50 denotes the point on the concentration scale where inhibition reaches its midpoint. For `CC(C)[C@H](CO)NCc1nc(-c2cccc(C(=O)N3CCSCC3)c2)ccc1F` [Example 62, {3-[5-fluoro-6-({[(2R)-1-hydroxy-3-methylbutan-2-yl]amino}methyl)pyridin-2-yl]phenyl}(thiomorpholin-4-yl)methanone], the IC50 is 4000 nM.
As to `CC(C)[C@H](CO)NCc1nc(-c2cccc3c2ccn3C)ccc1F` [Example 63, (2R)-2-({[3-fluoro-6-(1-methyl-1H-indol-4-yl)pyridin-2-yl]methyl}amino)-3-methylbutan-1-ol], the concentration for half-maximal inhibition (IC50) came to 1740 nM.
As to `CC(C)[C@H](CO)NCc1nc(-c2ccc3ccn(C)c3c2)ccc1F` [Example 64, (2R)-2-({[3-fluoro-6-(1-methyl-1H-indol-6-yl)pyridin-2-yl]methyl}amino)-3-methylbutan-1-ol], the IC50 was 480 nM.
As for `CC(C)[C@H](CO)NCc1nc(N2CCCC(C(F)(F)F)C2)ccc1F` (stereo partly drawn) [Example 65, (2R)-2-[({3-fluoro-6-[3-(trifluoromethyl)piperidin-1-yl]pyridin-2-yl}methyl)amino]-3-methylbutan-1-ol], the IC50 stood at 320 nM.
Turning to `CC(C)[C@H](CO)NCc1nc(N2CCC(C(F)(F)F)CC2)ccc1F` [Example 66, (2R)-2-[({3-fluoro-6-[4-(trifluoromethyl)piperidin-1-yl]pyridin-2-yl}methyl)amino]-3-methylbutan-1-ol], the IC50 is 220 nM.
As for `CC(C)[C@H](CO)NCc1nc(N2CCC(C(F)(F)F)C2)ccc1F` (stereo partly drawn) [Example 67, (2R)-2-[({3-fluoro-6-[3-(trifluoromethyl)pyrrolidin-1-yl]pyridin-2-yl}methyl)amino]-3-methylbutan-1-ol], the IC50 was 420 nM.
For `CC(C)[C@H](CO)NCc1nc(-c2ccc(OCC(F)(F)F)nc2)ccc1F` [Example 68, (2R)-2-({[5-fluoro-6′-(2,2,2-trifluoroethoxy)-2,3′-bipyridin-6-yl]methyl}amino)-3-methylbutan-1-ol], the IC50 amounted to 590 nM.
Turning to `CC(C)[C@H](CO)NCc1cccc(-c2ccc(C(F)(F)F)nc2)n1` [Example 69, (2R)-3-methyl-2-({[6′-(trifluoromethyl)-2,3′-bipyridin-6-yl]methyl}amino)butan-1-ol], the IC50 turned out to be 3720 nM.
The figure for `CC(C)[C@H](CO)NCc1nc(N2CCc3ccccc3C2)ccc1F` [Example 70, (2R)-2-({[6-(3,4-dihydroisoquinolin-2(1H)-yl)-3-fluoropyridin-2-yl]methyl}amino)-3-methylbutan-1-ol] is 180 nM.
As to `CC(C)[C@H](CO)NCc1nc(N2Cc3ccccc3C2)ccc1F` [Example 71, (2R)-2-({[6-[1,3-dihydro-2H-isoindol-2-yl)-3-fluoropyridin-2-yl]methyl}amino)-3-methylbutan-1-ol], the IC50 was determined as 160 nM.
Take `CC(C)[C@H](CO)NCc1nc(-c2ccc(C(F)(F)F)cn2)ccc1F` [Example 73, (2R)-2-({[5-fluoro-5′-(trifluoromethyl)-2,2′-bipyridin-6-yl]methyl}amino)-3-methylbutan-1-ol]: the IC50 stood at 140 nM.
With `COCC(CO)NCc1nc(-c2ccc(C(F)(F)F)cc2)ccc1F` (stereo not drawn) [Example 74, 2-[({3-fluoro-6-[4-(trifluoromethyl)phenyl]pyridin-2-yl}methyl)amino]-3-methoxypropan-1-ol], the IC50 was 3680 nM.
For the molecule `OC[C@H](NCc1nc(-c2ccc(C(F)(F)F)nc2)ccc1F)C1CC1` [Example 75, (2R)-2-cyclopropyl-2-({[5-fluoro-6′-(trifluoromethyl)-2,3′-bipyridin-6-yl]methyl}amino)ethanol], the IC50 was determined as 3020 nM.
Turning to `OC[C@H](NCc1nc(-c2ccc(OCC(F)(F)F)nc2)ccc1F)C1CC1` [Example 76, (2R)-2-cyclopropyl-2-({[5-fluoro-6′-(2,2,2-trifluoroethoxy)-2,3′-bipyridin-6-yl]methyl}amino)ethanol], the IC50 amounted to 1600 nM.
With `CC[C@H](CO)NCc1nc(-c2ccc(C(F)(F)F)cc2)ccc1F` [Example 77, (2R)-2-[({3-fluoro-6-[4-(trifluoromethyl)phenyl]pyridin-2-yl}methyl)amino]butan-1-ol], the IC50 amounted to 540 nM.
To `CC[C@H](CO)NCc1nc(-c2ccc(C(F)(F)F)nc2)ccc1F` [Example 78, (2R)-2-({[5-fluoro-6′-(trifluoromethyl)-2,3′-bipyridin-6-yl]methyl}amino)butan-1-ol] belongs 10200 nM.
The figure for `OCC1(NCc2nc(-c3ccc(C(F)(F)F)cc3)ccc2F)CCC1` [Example 79, {1-[({3-fluoro-6-[4-(trifluoromethyl)phenyl]pyridin-2-yl}methyl)amino]cyclobutyl}methanol] is 700 nM; for `OCC1(NCc2nc(-c3ccc(C(F)(F)F)cc3)ccc2F)CCCC1` [Example 80, {1-[({3-fluoro-6-[4-(trifluoromethyl)phenyl]pyridin-2-yl}methyl)amino]cyclopentyl}methanol] it is 290 nM.
As to `OCC1(NCc2nc(-c3ccc(C(F)(F)F)cc3)ccc2F)CCCCC1` [Example 81, {1-[({3-fluoro-6-[4-(trifluoromethyl)phenyl]pyridin-2-yl}methyl)amino]cyclohexyl}methanol], the 50% inhibitory concentration (IC50) was found to be 680 nM.
Regarding `C[C@H](CO)NCc1nc(-c2ccc(C(F)(F)F)cc2)ccc1F` [Example 82, (2R)-2-[({3-fluoro-6-[4-(trifluoromethyl)phenyl]pyridin-2-yl}methyl)amino]propan-1-ol], the IC50 is 1640 nM.
For `CCC[C@H](CO)NCc1nc(-c2ccc(C(F)(F)F)cc2)ccc1F` [Example 83, (2R)-2-[({3-fluoro-6-[4-(trifluoromethyl)phenyl]pyridin-2-yl}methyl)amino]pentan-1-ol], the IC50 is 460 nM.
Take `OC[C@H](NCc1nc(-c2ccc(C(F)(F)F)cc2)ccc1F)C1CCCCC1` [Example 84, (2R)-2-cyclohexyl-2-[({3-fluoro-6-[4-(trifluoromethyl)phenyl]pyridin-2-yl}methyl)amino]ethanol]: the IC50 was determined as 700 nM.
For the molecule `CC(C)(C)[C@H](CO)NCc1nc(-c2ccc(C(F)(F)F)cc2)ccc1F` [Example 85, (2R)-2-((3-fluoro-6-(4-(trifluoromethyl)phenyl)pyridin-2-yl)methylamino)-3,3-dimethylbutan-1-ol], the IC50 stood at 520 nM.
Consider `CC(O)C(C)NCc1nc(-c2ccc(C(F)(F)F)cc2)ccc1F` (stereo not drawn) [Example 86, 3-[({3-fluoro-6-[4-(trifluoromethyl)phenyl]pyridin-2-yl}methyl)amino]butan-2-ol], for which the IC50 was found to be 300 nM.
Consider `CCC[C@H](CO)NCc1nc(-c2ccc(C(F)(F)F)nc2)ccc1F` [Example 87, (2R)-2-({[5-fluoro-6′-(trifluoromethyl)-2,3′-bipyridin-6-yl]methyl}amino)pentan-1-ol], for which the IC50 was 3100 nM.
Take `OC[C@H](NCc1nc(-c2ccc(C(F)(F)F)nc2)ccc1F)C1CCCCC1` [Example 88, (2R)-2-cyclohexyl-2-({[5-fluoro-6′-(trifluoromethyl)-2,3′-bipyridin-6-yl]methyl}amino)ethanol]: the IC50 was determined as 570 nM.
For `CC(C)(C)[C@H](CO)NCc1nc(-c2ccc(C(F)(F)F)nc2)ccc1F` [Example 89, (2R)-2-({[5-fluoro-6′-(trifluoromethyl)-2,3′-bipyridin-6-yl]methyl}amino)-3,3-dimethylbutan-1-ol], the IC50 amounted to 510 nM.
Consider `CC(O)C(C)NCc1nc(-c2ccc(C(F)(F)F)nc2)ccc1F` (stereo not drawn) [Example 90, 3-({[5-fluoro-6′-(trifluoromethyl)-2,3′-bipyridin-6-yl]methyl}amino)butan-2-ol], for which the IC50 is 2590 nM.
As for `CC(C)[C@H](CO)NCc1ccnc(-c2ccc(C(F)(F)F)cc2)n1` [Example 91, (2R)-3-methyl-2-[({2-[4-(trifluoromethyl)phenyl]pyrimidin-4-yl}methyl)amino]butan-1-ol], the IC50 is greater than 20000 nM.
The figure for `CC(C)[C@H](CO)NCc1nc(N2CCC(F)(F)CC2)ccc1F` [Example 92, (2R)-2-({[6-(4,4-difluoropiperidin-1-yl)-3-fluoropyridin-2-yl]methyl}amino)-3-methylbutan-1-ol] is 960 nM.
As for `CC(C)[C@H](CO)NCc1nc(N2Cc3ccc(F)cc3C2)ccc1F` [Example 93, (2R)-2-({[3-fluoro-6-(5-fluoro-1,3-dihydro-2H-isoindol-2-yl)pyridin-2-yl]methyl}amino)-3-methylbutan-1-ol], the IC50 was found to be 270 nM.
With `CC(C)[C@H](CO)NCc1nc(N2Cc3cccc(F)c3C2)ccc1F` [Example 94, (2R)-2-({[3-fluoro-6-(4-fluoro-1,3-dihydro-2H-isoindol-2-yl)pyridin-2-yl]methyl}amino)-3-methylbutan-1-ol], the IC50 is 120 nM.
On to `CC(C)[C@H](CO)NCc1nc(N2Cc3cccc(Cl)c3C2)ccc1F` [Example 95, (2R)-2-({[6-(4-chloro-1,3-dihydro-2H-isoindol-2-yl)-3-fluoropyridin-2-yl]methyl}amino)-3-methylbutan-1-ol], for which the IC50 is 340 nM.
The figure for `CC(C)[C@H](CO)NCc1nc(N2Cc3ccc(C(F)(F)F)cc3C2)ccc1F` [Example 96, (2R)-2-[({3-fluoro-6-[5-(trifluoromethyl)-1,3-dihydro-2H-isoindol-2-yl]pyridin-2-yl}methyl)amino]-3-methylbutan-1-ol] is 330 nM; for `CC(C)[C@H](CO)NCc1nc(N2CCc3c(F)cccc3C2)ccc1F` [Example 97, (2R)-2-({[3-fluoro-6-(5-fluoro-3,4-dihydroisoquinolin-2(1H)-yl)pyridin-2-yl]methyl}amino)-3-methylbutan-1-ol] it is 110 nM; for `CC(C)[C@H](CO)NCc1nc(N2CCc3ccc(F)cc3C2)ccc1F` [Example 98, (2R)-2-({[3-fluoro-6-(7-fluoro-3,4-dihydroisoquinolin-2(1H)-yl)pyridin-2-yl]methyl}amino)-3-methylbutan-1-ol] it is 320 nM.
